Oligonucleotides are given in HELM: sugar(base)linkage, 5' to 3'; d 2'-deoxyribose, r ribose, m 2'-O-methylribose, p phosphate. ss, as = sense and antisense strand
The substances below were run against Mmp7 (rat) (assay: reporter assay of Huesken 2005). Conditions: siRNA.
Also: test concentration or dose not given here.

For “RNA1{r(A)p.r(A)p.r(A)p.r(A)p.r(C)p.r(A)p.r(A)p.r(A)p.r(G)p.r(A)p.r(A)p.r(G)p.r(G)p.r(C)p.r(C)p.r(A)p.r(C)p.r(C)p.r(A)p.d(T)p.d(T)}|RNA2{r(U)p.r(G)p.r(G)p.r(U)p.r(G)p.r(G)p.r(C)p.r(C)p.r(U)p.r(U)p.r(C)p.r(U)p.r(U)p.r(U)p.r(G)p.r(U)p.r(U)p.r(U)p.r(U)p.d(A)p.d(G)}$$$RNA1{StrandType:ss}|RNA2{StrandType:as}$”, which normalised inhibition (eCFP-eYFP dual reporter) is on record?
The normalised inhibition (eCFP-eYFP dual reporter) was 45.7%.

For “RNA1{r(A)p.r(A)p.r(A)p.r(C)p.r(U)p.r(G)p.r(A)p.r(G)p.r(G)p.r(G)p.r(A)p.r(A)p.r(A)p.r(U)p.r(G)p.r(C)p.r(A)p.r(G)p.r(A)p.d(T)p.d(T)}|RNA2{r(U)p.r(C)p.r(U)p.r(G)p.r(C)p.r(A)p.r(U)p.r(U)p.r(U)p.r(C)p.r(C)p.r(C)p.r(U)p.r(C)p.r(A)p.r(G)p.r(U)p.r(U)p.r(U)p.d(G)p.d(T)}$$$RNA1{StrandType:ss}|RNA2{StrandType:as}$”, which normalised inhibition (eCFP-eYFP dual reporter) is on record?
The normalised inhibition (eCFP-eYFP dual reporter) was 116%.

For “RNA1{r(A)p.r(A)p.r(A)p.r(U)p.r(U)p.r(U)p.r(U)p.r(A)p.r(C)p.r(C)p.r(U)p.r(U)p.r(C)p.r(A)p.r(C)p.r(G)p.r(A)p.r(C)p.r(U)p.d(T)p.d(T)}|RNA2{r(A)p.r(G)p.r(U)p.r(C)p.r(G)p.r(U)p.r(G)p.r(A)p.r(A)p.r(G)p.r(G)p.r(U)p.r(A)p.r(A)p.r(A)p.r(A)p.r(U)p.r(U)p.r(U)p.d(C)p.d(C)}$$$RNA1{StrandType:ss}|RNA2{StrandType:as}$”, which normalised inhibition (eCFP-eYFP dual reporter) is on record?
Its normalised inhibition (eCFP-eYFP dual reporter) is 74.4%.

For “RNA1{r(A)p.r(A)p.r(C)p.r(A)p.r(A)p.r(A)p.r(G)p.r(A)p.r(A)p.r(G)p.r(G)p.r(C)p.r(C)p.r(A)p.r(C)p.r(C)p.r(A)p.r(G)p.r(U)p.d(T)p.d(T)}|RNA2{r(A)p.r(C)p.r(U)p.r(G)p.r(G)p.r(U)p.r(G)p.r(G)p.r(C)p.r(C)p.r(U)p.r(U)p.r(C)p.r(U)p.r(U)p.r(U)p.r(G)p.r(U)p.r(U)p.d(T)p.d(T)}$$$RNA1{StrandType:ss}|RNA2{StrandType:as}$”, which normalised inhibition (eCFP-eYFP dual reporter) is on record?
Its normalised inhibition (eCFP-eYFP dual reporter) is 87.1%.

Which normalised inhibition (eCFP-eYFP dual reporter) does the source give for “RNA1{r(A)p.r(A)p.r(C)p.r(U)p.r(U)p.r(C)p.r(C)p.r(C)p.r(A)p.r(U)p.r(U)p.r(U)p.r(G)p.r(A)p.r(U)p.r(G)p.r(G)p.r(G)p.r(C)p.d(T)p.d(T)}|RNA2{r(G)p.r(C)p.r(C)p.r(C)p.r(A)p.r(U)p.r(C)p.r(A)p.r(A)p.r(A)p.r(U)p.r(G)p.r(G)p.r(G)p.r(A)p.r(A)p.r(G)p.r(U)p.r(U)p.d(G)p.d(T)}$$$RNA1{StrandType:ss}|RNA2{StrandType:as}$” here?
Its normalised inhibition (eCFP-eYFP dual reporter) is 0.2%.

With “RNA1{r(A)p.r(A)p.r(G)p.r(C)p.r(C)p.r(C)p.r(A)p.r(G)p.r(G)p.r(U)p.r(G)p.r(U)p.r(G)p.r(G)p.r(A)p.r(G)p.r(U)p.r(G)p.r(C)p.d(T)p.d(T)}|RNA2{r(G)p.r(C)p.r(A)p.r(C)p.r(U)p.r(C)p.r(C)p.r(A)p.r(C)p.r(A)p.r(C)p.r(C)p.r(U)p.r(G)p.r(G)p.r(G)p.r(C)p.r(U)p.r(U)p.d(C)p.d(T)}$$$RNA1{StrandType:ss}|RNA2{StrandType:as}$” as the substance, how does the normalised inhibition (eCFP-eYFP dual reporter) read?
Its normalised inhibition (eCFP-eYFP dual reporter) is 47.5%.

How did the normalised inhibition (eCFP-eYFP dual reporter) turn out when “RNA1{r(A)p.r(A)p.r(G)p.r(G)p.r(A)p.r(U)p.r(G)p.r(A)p.r(G)p.r(U)p.r(A)p.r(C)p.r(U)p.r(G)p.r(G)p.r(A)p.r(C)p.r(G)p.r(G)p.d(T)p.d(T)}|RNA2{r(C)p.r(C)p.r(G)p.r(U)p.r(C)p.r(C)p.r(A)p.r(G)p.r(U)p.r(A)p.r(C)p.r(U)p.r(C)p.r(A)p.r(U)p.r(C)p.r(C)p.r(U)p.r(U)p.d(G)p.d(T)}$$$RNA1{StrandType:ss}|RNA2{StrandType:as}$” was run?
Its normalised inhibition (eCFP-eYFP dual reporter) is 75.8%.

“RNA1{r(A)p.r(A)p.r(G)p.r(G)p.r(C)p.r(C)p.r(A)p.r(C)p.r(C)p.r(A)p.r(G)p.r(U)p.r(G)p.r(C)p.r(A)p.r(G)p.r(U)p.r(G)p.r(G)p.d(T)p.d(T)}|RNA2{r(C)p.r(C)p.r(A)p.r(C)p.r(U)p.r(G)p.r(C)p.r(A)p.r(C)p.r(U)p.r(G)p.r(G)p.r(U)p.r(G)p.r(G)p.r(C)p.r(C)p.r(U)p.r(U)p.d(C)p.d(T)}$$$RNA1{StrandType:ss}|RNA2{StrandType:as}$” was tested. Which normalised inhibition (eCFP-eYFP dual reporter) did it give?
Its normalised inhibition (eCFP-eYFP dual reporter) is 22.3%.

With “RNA1{r(A)p.r(A)p.r(G)p.r(U)p.r(G)p.r(A)p.r(C)p.r(C)p.r(G)p.r(C)p.r(A)p.r(C)p.r(U)p.r(U)p.r(C)p.r(A)p.r(G)p.r(U)p.r(G)p.d(T)p.d(T)}|RNA2{r(C)p.r(A)p.r(C)p.r(U)p.r(G)p.r(A)p.r(A)p.r(G)p.r(U)p.r(G)p.r(C)p.r(G)p.r(G)p.r(U)p.r(C)p.r(A)p.r(C)p.r(U)p.r(U)p.d(C)p.d(T)}$$$RNA1{StrandType:ss}|RNA2{StrandType:as}$” as the substance, how does the normalised inhibition (eCFP-eYFP dual reporter) read?
The normalised inhibition (eCFP-eYFP dual reporter) was 79.7%.

With “RNA1{r(A)p.r(A)p.r(G)p.r(U)p.r(U)p.r(C)p.r(U)p.r(U)p.r(C)p.r(G)p.r(G)p.r(U)p.r(U)p.r(U)p.r(G)p.r(C)p.r(C)p.r(G)p.r(G)p.d(T)p.d(T)}|RNA2{r(C)p.r(C)p.r(G)p.r(G)p.r(C)p.r(A)p.r(A)p.r(A)p.r(C)p.r(C)p.r(G)p.r(A)p.r(A)p.r(G)p.r(A)p.r(A)p.r(C)p.r(U)p.r(U)p.d(C)p.d(T)}$$$RNA1{StrandType:ss}|RNA2{StrandType:as}$” as the substance, how does the normalised inhibition (eCFP-eYFP dual reporter) read?
The normalised inhibition (eCFP-eYFP dual reporter) was 1.8%.

With “RNA1{r(A)p.r(A)p.r(U)p.r(G)p.r(C)p.r(A)p.r(G)p.r(A)p.r(A)p.r(G)p.r(C)p.r(C)p.r(C)p.r(A)p.r(G)p.r(G)p.r(U)p.r(G)p.r(U)p.d(T)p.d(T)}|RNA2{r(A)p.r(C)p.r(A)p.r(C)p.r(C)p.r(U)p.r(G)p.r(G)p.r(G)p.r(C)p.r(U)p.r(U)p.r(C)p.r(U)p.r(G)p.r(C)p.r(A)p.r(U)p.r(U)p.d(A)p.d(T)}$$$RNA1{StrandType:ss}|RNA2{StrandType:as}$” as the substance, how does the normalised inhibition (eCFP-eYFP dual reporter) read?
Its normalised inhibition (eCFP-eYFP dual reporter) is 86.1%.

“RNA1{r(A)p.r(A)p.r(U)p.r(U)p.r(U)p.r(U)p.r(A)p.r(C)p.r(C)p.r(U)p.r(U)p.r(C)p.r(A)p.r(C)p.r(G)p.r(A)p.r(C)p.r(U)p.r(C)p.d(T)p.d(T)}|RNA2{r(G)p.r(A)p.r(G)p.r(U)p.r(C)p.r(G)p.r(U)p.r(G)p.r(A)p.r(A)p.r(G)p.r(G)p.r(U)p.r(A)p.r(A)p.r(A)p.r(A)p.r(U)p.r(U)p.d(T)p.d(C)}$$$RNA1{StrandType:ss}|RNA2{StrandType:as}$” was tested. Which normalised inhibition (eCFP-eYFP dual reporter) did it give?
The normalised inhibition (eCFP-eYFP dual reporter) was 76.1%.

How did the normalised inhibition (eCFP-eYFP dual reporter) turn out when “RNA1{r(A)p.r(C)p.r(A)p.r(G)p.r(G)p.r(C)p.r(G)p.r(C)p.r(A)p.r(G)p.r(A)p.r(A)p.r(U)p.r(U)p.r(A)p.r(U)p.r(C)p.r(U)p.r(U)p.d(T)p.d(T)}|RNA2{r(A)p.r(A)p.r(G)p.r(A)p.r(U)p.r(A)p.r(A)p.r(U)p.r(U)p.r(C)p.r(U)p.r(G)p.r(C)p.r(G)p.r(C)p.r(C)p.r(U)p.r(G)p.r(U)p.d(T)p.d(C)}$$$RNA1{StrandType:ss}|RNA2{StrandType:as}$” was run?
Its normalised inhibition (eCFP-eYFP dual reporter) is 75.6%.

How did the normalised inhibition (eCFP-eYFP dual reporter) turn out when “RNA1{r(A)p.r(C)p.r(A)p.r(G)p.r(U)p.r(C)p.r(C)p.r(U)p.r(A)p.r(A)p.r(G)p.r(U)p.r(G)p.r(G)p.r(C)p.r(A)p.r(U)p.r(U)p.r(C)p.d(T)p.d(T)}|RNA2{r(G)p.r(A)p.r(A)p.r(U)p.r(G)p.r(C)p.r(C)p.r(A)p.r(C)p.r(U)p.r(U)p.r(A)p.r(G)p.r(G)p.r(A)p.r(C)p.r(U)p.r(G)p.r(U)p.d(T)p.d(T)}$$$RNA1{StrandType:ss}|RNA2{StrandType:as}$” was run?
The normalised inhibition (eCFP-eYFP dual reporter) was 65.7%.

With “RNA1{r(A)p.r(C)p.r(C)p.r(G)p.r(G)p.r(G)p.r(G)p.r(C)p.r(C)p.r(A)p.r(G)p.r(G)p.r(C)p.r(C)p.r(U)p.r(C)p.r(G)p.r(G)p.r(C)p.d(T)p.d(T)}|RNA2{r(G)p.r(C)p.r(C)p.r(G)p.r(A)p.r(G)p.r(G)p.r(C)p.r(C)p.r(U)p.r(G)p.r(G)p.r(C)p.r(C)p.r(C)p.r(C)p.r(G)p.r(G)p.r(U)p.d(G)p.d(C)}$$$RNA1{StrandType:ss}|RNA2{StrandType:as}$” as the substance, how does the normalised inhibition (eCFP-eYFP dual reporter) read?
The normalised inhibition (eCFP-eYFP dual reporter) was 11%.

How did the normalised inhibition (eCFP-eYFP dual reporter) turn out when “RNA1{r(A)p.r(C)p.r(U)p.r(C)p.r(A)p.r(G)p.r(G)p.r(C)p.r(G)p.r(U)p.r(G)p.r(A)p.r(A)p.r(C)p.r(U)p.r(U)p.r(C)p.r(C)p.r(U)p.d(T)p.d(T)}|RNA2{r(A)p.r(G)p.r(G)p.r(A)p.r(A)p.r(G)p.r(U)p.r(U)p.r(C)p.r(A)p.r(C)p.r(G)p.r(C)p.r(C)p.r(U)p.r(G)p.r(A)p.r(G)p.r(U)p.d(C)p.d(C)}$$$RNA1{StrandType:ss}|RNA2{StrandType:as}$” was run?
Its normalised inhibition (eCFP-eYFP dual reporter) is 73.1%.

For “RNA1{r(A)p.r(C)p.r(U)p.r(C)p.r(U)p.r(C)p.r(U)p.r(G)p.r(G)p.r(G)p.r(U)p.r(C)p.r(U)p.r(G)p.r(G)p.r(G)p.r(U)p.r(C)p.r(A)p.d(T)p.d(T)}|RNA2{r(U)p.r(G)p.r(A)p.r(C)p.r(C)p.r(C)p.r(A)p.r(G)p.r(A)p.r(C)p.r(C)p.r(C)p.r(A)p.r(G)p.r(A)p.r(G)p.r(A)p.r(G)p.r(U)p.d(G)p.d(G)}$$$RNA1{StrandType:ss}|RNA2{StrandType:as}$”, which normalised inhibition (eCFP-eYFP dual reporter) is on record?
The normalised inhibition (eCFP-eYFP dual reporter) was 61.8%.

How did the normalised inhibition (eCFP-eYFP dual reporter) turn out when “RNA1{r(A)p.r(C)p.r(U)p.r(C)p.r(U)p.r(U)p.r(C)p.r(U)p.r(G)p.r(U)p.r(U)p.r(C)p.r(C)p.r(C)p.r(A)p.r(G)p.r(U)p.r(U)p.r(C)p.d(T)p.d(T)}|RNA2{r(G)p.r(A)p.r(A)p.r(C)p.r(U)p.r(G)p.r(G)p.r(G)p.r(A)p.r(A)p.r(C)p.r(A)p.r(G)p.r(A)p.r(A)p.r(G)p.r(A)p.r(G)p.r(U)p.d(G)p.d(A)}$$$RNA1{StrandType:ss}|RNA2{StrandType:as}$” was run?
The normalised inhibition (eCFP-eYFP dual reporter) was 81.4%.

With “RNA1{r(A)p.r(C)p.r(U)p.r(G)p.r(G)p.r(A)p.r(C)p.r(G)p.r(G)p.r(A)p.r(U)p.r(G)p.r(G)p.r(U)p.r(G)p.r(A)p.r(G)p.r(G)p.r(A)p.d(T)p.d(T)}|RNA2{r(U)p.r(C)p.r(C)p.r(U)p.r(C)p.r(A)p.r(C)p.r(C)p.r(A)p.r(U)p.r(C)p.r(C)p.r(G)p.r(U)p.r(C)p.r(C)p.r(A)p.r(G)p.r(U)p.d(A)p.d(C)}$$$RNA1{StrandType:ss}|RNA2{StrandType:as}$” as the substance, how does the normalised inhibition (eCFP-eYFP dual reporter) read?
The normalised inhibition (eCFP-eYFP dual reporter) was 46.5%.

For “RNA1{r(A)p.r(C)p.r(U)p.r(U)p.r(C)p.r(A)p.r(G)p.r(U)p.r(C)p.r(U)p.r(U)p.r(A)p.r(C)p.r(A)p.r(A)p.r(A)p.r(G)p.r(G)p.r(A)p.d(T)p.d(T)}|RNA2{r(U)p.r(C)p.r(C)p.r(U)p.r(U)p.r(U)p.r(G)p.r(U)p.r(A)p.r(A)p.r(G)p.r(A)p.r(C)p.r(U)p.r(G)p.r(A)p.r(A)p.r(G)p.r(U)p.d(C)p.d(T)}$$$RNA1{StrandType:ss}|RNA2{StrandType:as}$”, which normalised inhibition (eCFP-eYFP dual reporter) is on record?
The normalised inhibition (eCFP-eYFP dual reporter) was 112%.

Source: the OligoGym collection
